Reference: US11771725B2, “Lactobacillus having various functions, and use thereof” (University-Industry Cooperation Group of Kyung Hee …, priority 2015, dated 2023)

Legend:
[1] = system: itching behavior induced by compound 48/80; experiment: Inhibition of itching induced by compound 48/80; format: in vivo; conditions: BALB/c mice, 1×10^9 CFU orally once a day for 3 days (control drugs 0.2 mg/mouse)
Protocol: At 1 hour after the last administration of the drug, the mice were allowed to stand in an observation cage (24 cm×22 cm×24 cm) for 10 minutes so as to be acclimated to the environment, and then the back portion of the head was shaved. […] Sigma, USA) by a 29-gauge needle. […] Scratching the injection area with the back foot was regarded as the itching behavior, and scratching other portions was not regarded.

[2] = system: vascular permeability induced by compound 48/80; experiment: Inhibition of vascular permeability induced by compound 48/80 (Evans blue); format: in vivo; conditions: BALB/c mice, 1×10^9 CFU orally once a day for 3 days (control drugs 0.2 mg/mouse)
Protocol: It is known that itching-induced areas have increased vascular permeability. […] According to the same method as the above-described experiment for measurement of itching inhibitory activity, the drug was administered to the same mice. Next, physiological saline was injected subcutaneously into the back portion of the head of the mice of the normal group, and an itching inducer (50 μg of compound 48/80; Sigma, USA) was injected subcutaneously into the back portion of the head of the mice of the other test group. Next, 0.2 ml of 1% Evans blue solution (Sigma, USA) was injected into the tail vein, and after 1 hour, the mice were euthanized. The skin of the subcutaneously injected area was dissected, and incubated in 1 ml of 1N KOH at 37° C. overnight. On the next day, the incubated skin tissue was mixed with 4 ml of 0.6N phosphoric acid-acetone (5:13) mixture and centrifuged at 3000 rpm for 15 minutes, and the supernatant was collected and measured for absorbance at 620 nm. Inhibition (%) of vascular permeability was calculated using the following equation: Inhibition(%)={1−[absorbance of area treated with drug and itching inducer−absorbance of area not treated with itching inducer]/[absorbance of area treated with itching inducer−absorbance of area not treated with itching inducer]}×100

[3] = system: RBL-2H3 cell line (rat mast cell line); experiment: Inhibition of degranulation in IgE-sensitized RBL-2H3 cells; format: cell-based; conditions: RBL-2H3, lactic acid bacteria 1×10^4 CFU/ml
Protocol: The RBL-2H3 cell line (rat mast cell line, the Korean Cell Line Bank, Cat. No. 22256) was cultured with DMEM (Dulbeccos' modified Eagle's medium, Sigma, 22256) containing 10% FBS (fetal bovine serum) and L-glutamine in a humidified 5% CO2 incubator at 37° C. The cells contained in the culture medium were floated using trypsin-EDTA solution, and the floated cells were isolated, collected and used in the experiment. The collected RBL-2H3 cells were dispensed into a 24-well plate at a density of 5×10^5 cells/well and sensitized by incubation with 0.5 μg/ml of mouse monoclonal IgE for 12 hours. The sensitized cells were washed with 0.5 ml of siraganian buffer (119 mM NaCl, 5 mM KCl, 0.4 mM MgCl2, 25 mM PIPES, 40 mM NaOH, pH 7.2), and then incubated with 0.16 ml of siraganian buffer (supplemented with 5.6 mM glucose, 1 mM CaCl2), 0.1% BSA) at 37° C. for 10 minutes. Next, lactic acid bacteria as a test drug were added to the cell culture to a concentration of 1×10^4 CFU/ml, or 0.04 ml of DSCG (disodium cromoglycate) as a control drug was added to the cell culture, and after 20 minutes, the cells were activated with 0.02 ml of antigen (1 μg/ml DNP-BSA) at 37° C. for 10 minutes. […] Next, the reaction was stopped by addition of 0.2 ml of 0.1M Na2CO3/NaHCO3, and the absorbance at 405 nm was measured by an ELISA analyzer.

Row | Compound | Inhibition (%) Itching [1] [%] | Inhibition (%) vascular permeability [2] [%] | Inhibition (%) Degranulation ([3]; first experiment) [%] | Degranulation inhibition (%) ([3]; second experiment)
1 | CN1CCCC(n2nc(Cc3ccc(Cl)cc3)c3ccccc3c2=O)CC1 (stereo not drawn) [Azelastine] | 65 | 68 | – | –
2 | O=C([O-])c1cc(=O)c2c(OCC(O)COc3cccc4oc(C(=O)[O-])cc(=O)c34)cccc2o1.[Na+].[Na+] [DSCG, disodium cromoglycate] | 25 | 37 | 62 | 62
